Test results reported in ChEMBL document CHEMBL1201862, “PubChem BioAssay data set” (2004).
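In this assay, cells in 96-well plates receive the compound at five concentrations for 48 hours. Endpoints are linearly interpolated between the surrounding concentrations. The concentration for 50% growth inhibition is given as GI50.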 Active and inactive are the calls of the source. Rule as the data show it: active = GI50 up to about 1.1 µM and inactive = higher.

What was measured:
Assay in all cases: inhibition of tumour cell growth, NCI panel, 48 h
OVCAR-4 = test system: OVCAR-4
A498 = test system: A498
SF-295 = test system: SF-295
OVCAR-3 = test system: OVCAR-3
HT-29 = test system: HT-29
K562 = test system: K562
TK-10 = test system: TK-10
SK-MEL-28 = test system: SK-MEL-28
NCI-H460 = test system: NCI-H460
SK-MEL-2 = test system: SK-MEL-2
UO-31 = test system: UO-31
U-251 = test system: U-251
UACC-62 = test system: UACC-62
HCC 2998 = test system: HCC 2998
LOX IMVI = test system: LOX IMVI
SF-268 = test system: SF-268
NCI-H522 = test system: NCI-H522
SN12C = test system: SN12C

Measured: GI50

CCc1cccc(C)c1NS(=O)(=O)c1ccccc1
inactive: OVCAR-4 > 100 µM | A498 > 100 µM | SF-295 > 100 µM | OVCAR-3 > 100 µM | HT-29 > 100 µM | K562 > 100 µM | TK-10 > 100 µM | SK-MEL-28 > 100 µM | NCI-H460 > 100 µM | SK-MEL-2 > 100 µM | UO-31 > 100 µM | U-251 > 100 µM | UACC-62 > 100 µM | HCC 2998 > 100 µM

OC(c1ccccc1)(c1ccccc1)c1ccncc1
inactive: OVCAR-4 > 100 µM | SF-295 > 100 µM | LOX IMVI > 100 µM | OVCAR-3 > 100 µM | HT-29 > 100 µM | K562 > 100 µM | TK-10 > 100 µM | SK-MEL-28 > 100 µM | SF-268 > 100 µM | NCI-H460 > 100 µM | SK-MEL-2 > 100 µM | UO-31 > 100 µM | U-251 > 100 µM | UACC-62 > 100 µM | NCI-H522 > 100 µM | SN12C > 100 µM | HCC 2998 > 100 µM

N#Cc1ccc(/C=N\N2C(=O)c3ccccc3C2=O)cc1
inactive: OVCAR-4 > 100 µM | A498 > 100 µM | SF-295 > 100 µM | LOX IMVI > 100 µM | OVCAR-3 > 100 µM | HT-29 > 100 µM | K562 > 100 µM | TK-10 > 100 µM | SK-MEL-28 > 100 µM | SF-268 > 100 µM | NCI-H460 > 100 µM | SK-MEL-2 > 100 µM | UO-31 > 100 µM | UACC-62 > 100 µM | SN12C > 100 µM | HCC 2998 > 100 µM

O=C(c1ccccc1)[C@H]1Nc2ccc(Cl)cc2C2c3ccccc3CC21 (stereo partly drawn)
inactive: OVCAR-4 22.2 µM | SF-295 18.5 µM | LOX IMVI 50.4 µM | OVCAR-3 21 µM | HT-29 83.9 µM | K562 25.6 µM | TK-10 57.1 µM | SK-MEL-28 32.3 µM | SF-268 > 100 µM | NCI-H460 63.5 µM | SK-MEL-2 67 µM | UO-31 > 100 µM | U-251 47.6 µM | UACC-62 > 10 µM | NCI-H522 95.3 µM | SN12C 83.2 µM | HCC 2998 19.9 µM

C1=CC=C2NCCCCCC/N=C3\C=CC=CC=C3NCCc3cccc(c3)CC/N=C/2C=C1
inactive: OVCAR-4 12.7 µM | SF-295 16.9 µM | LOX IMVI 4.63 µM | OVCAR-3 27.7 µM | HT-29 6.07 µM | K562 4.59 µM | SF-268 31.7 µM | NCI-H460 5.42 µM | SK-MEL-2 26.9 µM | UO-31 16.7 µM | U-251 18.7 µM | UACC-62 21.7 µM | NCI-H522 16.9 µM | SN12C 29.7 µM | HCC 2998 10 µM

CC(=O)NC(CCCNC(=O)NCCCl)C(=O)NCc1ccccc1 (stereo not drawn)
inactive: OVCAR-4 > 100 µM | SF-295 > 100 µM | OVCAR-3 > 100 µM | HT-29 > 100 µM | K562 > 100 µM | TK-10 > 100 µM | SK-MEL-28 > 100 µM | SF-268 > 100 µM | NCI-H460 > 100 µM | SK-MEL-2 > 100 µM | UO-31 > 100 µM | U-251 > 100 µM | UACC-62 > 100 µM | NCI-H522 > 100 µM | SN12C > 100 µM | HCC 2998 > 100 µM

COC(=O)c1csnn1
inactive: SF-295 > 100 µM | LOX IMVI > 100 µM | OVCAR-3 > 100 µM | HT-29 > 100 µM | K562 > 100 µM | TK-10 > 100 µM | SK-MEL-28 > 100 µM | SF-268 > 100 µM | NCI-H460 > 100 µM | UO-31 > 100 µM | U-251 > 100 µM | UACC-62 > 100 µM | NCI-H522 > 100 µM | SN12C > 100 µM | HCC 2998 > 100 µM

CCOP(=O)(OCC)/C(C#N)=C/c1ccc[nH]1
inactive: OVCAR-4 > 100 µM | SF-295 > 100 µM | LOX IMVI > 100 µM | OVCAR-3 > 100 µM | HT-29 > 100 µM | K562 > 100 µM | TK-10 74.6 µM | SK-MEL-28 > 100 µM | SF-268 > 100 µM | NCI-H460 > 100 µM | SK-MEL-2 > 100 µM | UO-31 > 100 µM | U-251 > 100 µM | UACC-62 > 100 µM | NCI-H522 > 100 µM | SN12C > 100 µM

N#Cc1nc(Nc2cccc3ccccc23)sc1N
inactive: OVCAR-4 57.7 µM | SF-295 28.3 µM | LOX IMVI 17.3 µM | OVCAR-3 44.6 µM | HT-29 41.1 µM | K562 25.8 µM | TK-10 40.6 µM | SK-MEL-28 37.9 µM | SF-268 20.4 µM | NCI-H460 35 µM | SK-MEL-2 28.5 µM | UO-31 12.9 µM | U-251 22.2 µM | UACC-62 21.2 µM | NCI-H522 15.9 µM | SN12C 14.1 µM | HCC 2998 20.3 µM

CC1=C(C(=O)CC(=O)C(=O)Nc2cc(C)ccc2C)Sc2ccccc2N1
inactive: OVCAR-4 > 100 µM | SF-295 32 µM | LOX IMVI > 100 µM | OVCAR-3 > 100 µM | HT-29 > 100 µM | K562 > 100 µM | TK-10 > 100 µM | SK-MEL-28 > 100 µM | SF-268 > 100 µM | NCI-H460 > 10 µM | SK-MEL-2 > 100 µM | UO-31 > 100 µM | U-251 > 100 µM | UACC-62 > 100 µM | NCI-H522 > 100 µM | SN12C > 100 µM | HCC 2998 > 100 µM

COc1cc2ccnc3c(=C(SC)SC)c(=O)c(c1OC)c23
inactive: OVCAR-4 15.8 µM | SF-295 58.1 µM | LOX IMVI 2.87 µM | OVCAR-3 14.9 µM | HT-29 12.3 µM | K562 3.29 µM | TK-10 14 µM | SK-MEL-28 13 µM | SF-268 22.2 µM | NCI-H460 35.3 µM | SK-MEL-2 16.2 µM | UO-31 14.6 µM | U-251 42.7 µM | UACC-62 17.8 µM | NCI-H522 1.56 µM | SN12C 15.2 µM | HCC 2998 16.4 µM

CCCn1c(SCCSc2c3ccccc3c(-c3nc(F)nc(F)n3)n2CCC)c2ccccc2c1-c1nc(F)nc(F)n1
inactive: OVCAR-4 > 100 µM | SF-295 > 100 µM | OVCAR-3 > 100 µM | HT-29 > 100 µM | K562 > 100 µM | TK-10 > 100 µM | SK-MEL-28 > 100 µM | SF-268 > 100 µM | NCI-H460 > 100 µM | SK-MEL-2 > 100 µM | UO-31 > 100 µM | U-251 > 100 µM | UACC-62 > 100 µM | NCI-H522 > 100 µM | SN12C > 100 µM | HCC 2998 > 100 µM
